The values that follow come from patent US8969343B2, “Histone demethylase inhibitors” (priority 2012, dated 2015).

SMILES strings stand for the structures.

For orientation: IC50 means the concentration at which inhibition is half-maximal. Read a low IC50 as greater potency in that assay.

The experiment concerns the target T1, JMJD2C (Homo sapiens, UniProt Q9H3R0).
T1 sequence (Q9H3R0 2-372): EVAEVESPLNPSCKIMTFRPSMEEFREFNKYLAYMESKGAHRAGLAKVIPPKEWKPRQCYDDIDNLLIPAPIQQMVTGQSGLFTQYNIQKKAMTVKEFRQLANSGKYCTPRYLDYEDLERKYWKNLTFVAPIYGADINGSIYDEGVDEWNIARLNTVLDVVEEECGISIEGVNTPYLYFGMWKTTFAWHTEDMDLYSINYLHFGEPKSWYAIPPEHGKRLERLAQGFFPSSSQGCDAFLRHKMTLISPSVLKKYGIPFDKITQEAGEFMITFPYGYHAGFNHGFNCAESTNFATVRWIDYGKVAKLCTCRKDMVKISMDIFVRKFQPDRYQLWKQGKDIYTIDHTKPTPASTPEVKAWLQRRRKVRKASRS
Briefly: JMJD2C in vitro enzyme inhibition assay (TR-FRET). Type of experiment: biochemical. The conditions noted are these: 0.3 nM JMJD2C, 300 nM H3K9me3-biotin peptide, 2 μM alpha-ketoglutaric acid. The method, then: This assay determines the ability of a test compound to inhibit Jarid1A, Jarid1B, and JMJD2C demethylase activity.
Reaction product was determined quantitatively by TR-FRET after the addition of detection reagent Phycolink Streptavidin-allophycocyanin (Prozyme) and Europium-anti-di-methylated histone H3 lysine 9 (H3K9me2) antibody (PerkinElmer) in the presence of 5 mM EDTA in LANCE detection buffer (PerkinElmer) at a final concentration of 50 nM and 1 nM, respectively.
The assay reaction was initiated by the following: 2 μl of the mixture of 900 nM H3K9me3-biotin labeled peptide and 6 μM alpha-ketoglutaric acid with 2 μl of 11-point serial diluted inhibitor in 3% DMSO were added to each well of the plate, followed by the addition of 2 μl of 0.9 nM JMJD2C to initiate the reaction. The reaction mixture was incubated at room temperature for 30 minutes, and terminated by the addition of 6 μl of 5 mM EDTA in LANCE detection buffer containing 100 nM Phycolink Streptavidin-allophycocyanin and 2 nM Europium-anti-H3K9me2 antibody.
Background: In TR-FRET formats the signal depends on donor and acceptor labels being close together.

Consider `Cn1nc(Nc2cnccc2C(=O)O)c2cc(Cl)ccc21` [Example 4], for which the IC50 lay in the range of 100 to 1000 nM.

Take `Cc1ccc2c(Nc3cnccc3C(=O)O)nn(C)c2c1` [Example 5, 3-[(1,6-dimethyl-1H-indazol-3-yl)amino]pyridine-4-carboxylic acid]: the IC50 is 100 to 1000 nM.

With `COc1ccc2c(Nc3cnccc3C(=O)O)nn(C)c2c1` [Example 8, 3-[(6-methoxy-1-methyl-1H-indazol-3-yl)amino]pyridine-4-carboxylic acid], the IC50 fell in the range of 100 to 1000 nM.

In turn, `CCCn1nc(Nc2cnccc2C(=O)O)c2ccccc21` [Example 9, 3-[(1-propyl-1H-indazol-3-yl)amino]pyridine-4-carboxylic acid] displayed an IC50 of 100 to 1000 nM.

`COCCn1nc(Nc2cnccc2C(=O)O)c2ccccc21` [Example 10, 3-{[1-(2-methoxyethyl)-1H-indazol-3-yl]amino}pyridine-4-carboxylic acid] came in with an IC50 of 100 to 1000 nM.

As to `CCCn1nc(Nc2cnccc2C(=O)O)c2cc(F)ccc21` [Example 15, 3-[(5-fluoro-1-propyl-1H-indazol-3-yl)amino]pyridine-4-carboxylic acid], the IC50 was in the range of 100 to 1000 nM.

Turning to `O=C(O)c1ccncc1Nc1nn(CC2CC2)c2ccc(F)cc12` [Example 16, 3-{[1-(cyclopropylmethyl)-5-fluoro-1H-indazol-3-yl]amino}pyridine-4-carboxylic acid], the IC50 is 100 to 1000 nM.

`CCCCCn1nc(Nc2cnccc2C(=O)O)c2cc(F)ccc21` [Example 18, 3-[(5-fluoro-1-pentyl-1H-indazol-3-yl)amino]pyridine-4-carboxylic acid]: the IC50 lay in the range of 100 to 1000 nM.

The molecule `O=C(O)c1ccncc1Nc1nn(CCc2ccccc2)c2ccc(F)cc12` [Example 19, 3-{[5-fluoro-1-(2-phenethyl)-1H-indazol-3-yl]amino}pyridine-4-carboxylic acid] had an IC50 of 100 to 1000 nM.

Molecule `O=C(O)c1ccncc1Nc1nn(CC2CCCO2)c2ccc(F)cc12` (stereo not shown) [Example 21, 3-{[5-fluoro-1-(tetrahydrofuran-2-ylmethyl)-1H-indazol-3-yl]amino}pyridine-4-carboxylic acid] registered an IC50 of 100 to 1000 nM.

For the molecule `O=C(O)c1ccncc1Nc1nn(CC(F)(F)F)c2ccc(F)cc12` [Example 23, 3-{[5-fluoro-1-(2,2,2-trifluoroethyl)-1H-indazol-3-yl]amino}pyridine-4-carboxylic acid], the IC50 was in the range of 100 to 1000 nM.

`CC(C)Cn1nc(Nc2cnccc2C(=O)O)c2cc(F)ccc21` [Example 25, 3-{[5-fluoro-1-(2-methylpropyl)-1H-indazol-3-yl]amino}pyridine-4-carboxylic acid]: the IC50 was 100 to 1000 nM.

The molecule `CCC(C)n1nc(Nc2cnccc2C(=O)O)c2cc(F)ccc21` (stereo not shown) [Example 26, 3-{[5-fluoro-1-(butan-2-yl)-1H-indazol-3-yl]amino}pyridine-4-carboxylic acid] registered an IC50 of 100 to 1000 nM.

As to `O=C(O)c1ccncc1Nc1nn(CC2CCC2)c2ccc(F)cc12` [Example 28, 3-{[1-(cyclobutylmethyl)-5-fluoro-1H-indazol-3-yl]amino}pyridine-4-carboxylic acid], the IC50 lay within 100 to 1000 nM.

Turning to `O=C(O)c1ccncc1Nc1nn(C2CCCC2)c2ccc(F)cc12` [Example 29, 3-[(1-cyclopentyl-5-fluoro-1H-indazol-3-yl)amino]pyridine-4-carboxylic acid], the IC50 lay within 100 to 1000 nM.

Consider `O=C(O)c1ccncc1Nc1nn(CC2CCCC2)c2ccc(F)cc12` [Example 30, 3-{[1-(cyclopentylmethyl)-5-fluoro-1H-indazol-3-yl]amino}pyridine-4-carboxylic acid], for which the 50% inhibitory concentration (IC50) fell in the range of 100 to 1000 nM.

`O=C(O)c1ccncc1Nc1nn(CCC2CC2)c2ccc(F)cc12` [Example 31, 3-{[1-(cyclopropylethyl)-5-fluoro-1H-indazol-3-yl]amino}pyridine-4-carboxylic acid] gave an IC50 of 100 to 1000 nM.

Consider `O=C(O)c1ccncc1Nc1nn(CCC(F)(F)F)c2ccc(F)cc12` [Example 32, 3-{[5-fluoro-1-(3,3,3-trifluoropropyl)-1H-indazol-3-yl]amino}pyridine-4-carboxylic acid], for which the IC50 fell in the range of 100 to 1000 nM.

The molecule `CCCn1nc(Nc2cnccc2C(=O)O)c2cc(Cl)ccc21` [Example 33, 3-[(5-chloro-1-propyl-1H-indazol-3-yl)amino]pyridine-4-carboxylic acid] yielded an IC50 of 100 to 1000 nM.

Consider `O=C(O)c1ccncc1Nc1nn(CC2CC2)c2ccc(Cl)cc12` [Example 34, 3-{[5-chloro-1-(cyclopropylmethyl)-1H-indazol-3-yl]amino}pyridine-4-carboxylic acid], for which the IC50 lay within 100 to 1000 nM.

In the case of `O=C(O)c1ccncc1Nc1nn(CCC(F)(F)F)c2ccc(Cl)cc12` [Example 35, 3-{[5-chloro-1-(3,3,3-trifluoropropyl)-1H-indazol-3-yl]amino}pyridine-4-carboxylic acid], the IC50 lay within 100 to 1000 nM.

`CCn1nc(Nc2cnccc2C(=O)O)c2cc(C)ccc21` [Example 36, 3-[(1-ethyl-5-methyl-1H-indazol-3-yl)amino]pyridine-4-carboxylic acid] gave a concentration for half-maximal inhibition (IC50) of 100 to 1000 nM.

`Cc1ccc2c(c1)c(Nc1cnccc1C(=O)O)nn2CC1CC1` [Example 37, 3-{[1-(cyclopropylmethyl)-5-methyl-1H-indazol-3-yl]amino}pyridine-4-carboxylic acid] came in with an IC50 of 100 to 1000 nM.

`CCCn1nc(Nc2cnccc2C(=O)O)c2cc(C)ccc21` [Example 38, 3-[(5-methyl-1-propyl-1H-indazol-3-yl)amino]pyridine-4-carboxylic acid]: the IC50 fell in the range of 100 to 1000 nM.

Take `Cc1ccc2c(c1)c(Nc1cnccc1C(=O)O)nn2CCC(F)(F)F` [Example 39, 3-{[5-methyl-1-(3,3,3-trifluoropropyl)-1H-indazol-3-yl]amino}pyridine-4-carboxylic acid]: the IC50 is 100 to 1000 nM.

As for `Cn1cc(Nc2cnccc2C(=O)O)c2cccnc21` [Example 52, 3-[(1-methyl-1H-pyrrolo[2,3-b]pyridine-3-yl)amino]pyridine-4-carboxylic acid], the IC50 lay in the range of 100 to 1000 nM.

With `CCCn1cc(Nc2cnccc2C(=O)O)c2cc(F)ccc21` [Example 57, 3-[(5-fluoro-1-propyl-1H-indol-3-yl)amino]pyridine-4-carboxylic acid], the IC50 lay in the range of 100 to 1000 nM.

Consider `O=C(O)c1ccncc1Nc1cn(CCC(F)(F)F)c2ccc(Cl)cc12` [Example 59, 3-{[5-chloro-1-(3,3,3-trifluoropropyl)-1H-indol-3-yl]amino}pyridine-4-carboxylic acid], for which the IC50 was 100 to 1000 nM.

`O=C(O)c1ccncc1Nc1nn(C2CCOCC2)c2ccc(F)cc12` [Example 62, 3-{[5-fluoro-1-(tetrahydro-2H-pyran-4-yl)-1H-indazol-3-yl]amino}pyridine-4-carboxylic acid] returned an IC50 of 100 to 1000 nM.

`O=C(O)c1ccncc1Nc1nn(C2CCCOC2)c2ccc(F)cc12` (stereo not shown) [Example 63, 3-{[5-fluoro-1-(tetrahydro-2H-pyran-3-yl)-1H-indazol-3-yl]amino}pyridine-4-carboxylic acid] yielded an IC50 of 100 to 1000 nM.

As to `O=C(O)c1ccncc1Nc1cn(C2CCOC2)c2ccc(F)cc12` (stereo not shown) [Example 68, 3-{[5-fluoro-1-(tetrahydrofuran-3-yl)-1H-indol-3-yl]amino}pyridine-4-carboxylic acid], the IC50 was 100 to 1000 nM.
